pIC50: −log10 of the molar value. Like-named read-outs stand apart in the source and are kept apart here.
Key:
[1] = system: HL60 cells; assay: AsedaSciences SYSTEMETRIC Cell Health Screen (flow cytometry toxicity profiling); conditions: HL60, 4 h, 5 nM–100 µM; for CC: Cell Cycle score / CM: Cell morphology score / CMI: Cell membrane integrity score / GSH: Glutathione score / MMP: Mitochondrial membrane depolarization score / NMI1: Nuclear membrane integrity 1 score / NMI2: Nuclear membrane integrity 2 score / ROS: Reactive superoxide species score: probability 0–1, n = 2; for CHI: Cell Health Index: probability (0–1) of high-risk class, n = 2
In short: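 Risk scores derive from a logistic-regression ML classifier comparing flow-cytometric stress phenotypes with those of 300 reference compounds of known high or low human risk. Phenotypes: light scatter plus fluorescent physiological dyes, twelve parameters, no gating. Compounds tested 5 nM–100 µM (3× steps, duplicate) on HL60 cells, 4 h, 37 °C.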

[2] = system: U-CH2 chordoma cell line; conditions: previously reported, Figure 1; cited from earlier work
[3] = system: U-CH1 chordoma cell line; conditions: previously reported, Figure 1; cited from earlier work
[4] = system: CH22 patient-derived chordoma cell line; assay: Cell viability assay (alamarBlue, 72 h), CH22; type: cell-based, human; conditions: n = 4, 72 h
Method: (§1) Chordoma cell lines were cultured as described previously[10],[12],[33],[34]. Briefly, U-CH1 and U-CH2 cell lines were cultured in 4:1 IMDM:RPMI medium supplemented with 10% fetal bovine serum (FBS) and 1% penicillin/streptomycin in gel-coated flasks. […] CH22, UM-Chor1, U-CH12, and U-CH7 cell lines were cultured in RPMI medium supplemented with 10% FBS and 1% penicillin/streptomycin. The cell lines all undergo regular mycoplasma screening.
(§2) Cells were seeded in 384 well plates and were treated with test compound in quadruplicate 24 h after plating. Cell viability was assessed at 72 h using alamarBlue (ThermoFisher, USA). […] IC50 values were determined by four-parameter nonlinear regression analyses using GraphPad Prism™ version 8 software (San Diego, CA).

[5] = target: EGFR (Homo sapiens, UniProt P00533); assay: ProQinase in-cell EGFR assay (EGFR phosphorylation in A431 cells); type: cell-based; parameters: This cell line endogenously expresses a high level of EGFR; endogenous in cells; host or cells: A431
From the text: In addition, we ran an EGFR in-cell target engagement assay, measuring in-cell EGFR phosphorylation, using the human epidermoid carcinoma cell line A431. This cell line endogenously expresses a high level of EGFR, and stimulation of these cells with human epidermal growth factor (EGF) results in receptor tyrosine autophosphorylation.

[6] = system: UM-Chor1 patient-derived chordoma cell line; assay: Cell viability assay (alamarBlue, 72 h), UM-Chor1; type: cell-based, human; conditions: n = 4, 72 h
Method: as §1, §2

[7] = system: U-CH7 patient-derived chordoma cell line; assay: Cell viability assay (alamarBlue, 72 h), U-CH7; type: cell-based, human; conditions: n = 4, 72 h
Method: as §1, §2

[8] = system: WS1 human fibroblast cell line; assay: Cell viability assay, WS1 toxicity control; type: cell-based; conditions: n = 4, nonspecific toxicity control
Method: as §2

[9] = system: U-CH2 chordoma cell line; assay: Cell viability assay (alamarBlue, 72 h), U-CH2; type: cell-based, human
In short: (§3)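 Compound added in quadruplicate 24 h after plating; cultures maintained in 4:1 IMDM:RPMI, 10% FBS, gel-coated flasks.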

[10] = system: U-CH12 patient-derived chordoma cell line; assay: Cell viability assay (alamarBlue, 72 h), U-CH12; type: cell-based, human; conditions: n = 4, 72 h
Method: as §1, §2

[11] = system: U-CH1 chordoma cell line; assay: Cell viability assay (alamarBlue, 72 h), U-CH1; type: cell-based, human; conditions: n = 4, 72 h
In short: as §3

[12] = ProQinase in-cell EGFR assay, A431 cells, n = 1

EGFR, sequence (P00533 25-1210): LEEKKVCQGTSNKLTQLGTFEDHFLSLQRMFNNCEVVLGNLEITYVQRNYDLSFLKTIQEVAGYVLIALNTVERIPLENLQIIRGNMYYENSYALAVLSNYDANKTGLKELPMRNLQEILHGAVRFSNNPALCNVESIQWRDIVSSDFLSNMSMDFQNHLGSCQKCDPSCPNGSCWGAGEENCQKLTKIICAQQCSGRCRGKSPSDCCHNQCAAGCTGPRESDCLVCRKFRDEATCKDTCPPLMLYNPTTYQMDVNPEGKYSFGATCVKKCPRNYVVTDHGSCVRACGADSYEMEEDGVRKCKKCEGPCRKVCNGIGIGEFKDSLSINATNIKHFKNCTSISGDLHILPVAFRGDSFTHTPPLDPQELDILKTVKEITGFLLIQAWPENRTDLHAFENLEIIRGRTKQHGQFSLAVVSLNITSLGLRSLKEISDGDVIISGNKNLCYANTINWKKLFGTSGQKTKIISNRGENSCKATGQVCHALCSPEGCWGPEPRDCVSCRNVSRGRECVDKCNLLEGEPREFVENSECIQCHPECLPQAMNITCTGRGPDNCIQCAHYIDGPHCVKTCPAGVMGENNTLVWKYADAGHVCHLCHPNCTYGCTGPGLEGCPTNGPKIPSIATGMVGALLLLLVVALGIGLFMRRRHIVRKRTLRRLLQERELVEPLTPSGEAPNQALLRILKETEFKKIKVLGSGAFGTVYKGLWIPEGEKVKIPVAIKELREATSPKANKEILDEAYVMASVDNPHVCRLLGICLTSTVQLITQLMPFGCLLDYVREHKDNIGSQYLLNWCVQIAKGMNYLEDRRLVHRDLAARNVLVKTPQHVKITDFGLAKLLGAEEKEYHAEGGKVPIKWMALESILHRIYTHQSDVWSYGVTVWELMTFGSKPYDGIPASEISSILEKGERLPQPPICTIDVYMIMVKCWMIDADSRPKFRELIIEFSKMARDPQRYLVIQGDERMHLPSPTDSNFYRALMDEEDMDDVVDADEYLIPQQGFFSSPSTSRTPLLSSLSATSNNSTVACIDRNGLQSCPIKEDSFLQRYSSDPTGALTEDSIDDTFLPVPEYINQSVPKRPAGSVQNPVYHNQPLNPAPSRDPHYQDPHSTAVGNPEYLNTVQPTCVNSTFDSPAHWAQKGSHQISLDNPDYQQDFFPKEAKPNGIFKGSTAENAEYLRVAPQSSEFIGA

CN(C)C/C=C/C(=O)Nc1cc2c(Nc3ccc(F)c(Cl)c3)ncnc2cc1O[C@H]1CCOC1 [Afatinib, reference compound]
CC: Cell Cycle score [1]: 0.93 | CM: Cell morphology score [1]: 1.00 | CMI: Cell membrane integrity score [1]: 1.00 | GSH: Glutathione score [1]: 1.00 | MMP: Mitochondrial membrane depolarization score [1]: 1.00 | NMI1: Nuclear membrane integrity 1 score [1]: 1.00 | NMI2: Nuclear membrane integrity 2 score [1]: 0.99 | ROS: Reactive superoxide species score [1]: 1.00 | CHI: Cell Health Index [1]: 0.92 | pIC50 [2]: 5.19 | pIC50 [3]: 7.00

C#Cc1cccc(Nc2ncnc3cc(OC)c(OC)cc23)c1 [Compound 1, N-(3-ethynylphenyl)-6,7-dimethoxyquinazolin-4-amine]
pIC50 ([4]; Homo sapiens): < 4.00 | pIC50 [5, 12]: 7.72 | pIC50 ([6]; Homo sapiens): 4.55 | CC: Cell Cycle score [1]: 0.086 | CM: Cell morphology score [1]: 0.85 | CMI: Cell membrane integrity score [1]: 0.11 | GSH: Glutathione score [1]: 0.18 | MMP: Mitochondrial membrane depolarization score [1]: 0.39 | NMI1: Nuclear membrane integrity 1 score [1]: 0.47 | NMI2: Nuclear membrane integrity 2 score [1]: 0.41 | ROS: Reactive superoxide species score [1]: 0.32 | CHI: Cell Health Index [1]: 0.41 | pIC50 ([7]; Homo sapiens): 4.64 | pIC50 ([8]; Homo sapiens, Fibroblast): 4.82 | pIC50 ([9]; Homo sapiens, UCH2, n = 4, 72 h): 4.18 | pIC50 ([10]; Homo sapiens): < 4.00 | pIC50 [2]: < 4.30 | pIC50 ([11]; Homo sapiens, UCH1, 72 h): > 6.00 | pIC50 [11]: 6.20 | pIC50 [3]: 6.04

C#Cc1ccc(F)c(Nc2ncnc3ccc(I)cc23)c1 [Compound 34]
pIC50 [4]: < 4.00 | pIC50 [5, 12]: 6.12 | pIC50 [6]: < 4.00 | CC: Cell Cycle score [1]: 0.25 | CM: Cell morphology score [1]: 0.025 | CMI: Cell membrane integrity score [1]: 0.014 | GSH: Glutathione score [1]: 0.044 | MMP: Mitochondrial membrane depolarization score [1]: 0.030 | NMI1: Nuclear membrane integrity 1 score [1]: 0.17 | NMI2: Nuclear membrane integrity 2 score [1]: 0.078 | ROS: Reactive superoxide species score [1]: 0.074 | CHI: Cell Health Index [1]: 0.18 | pIC50 [7]: < 4.00 | pIC50 [8]: < 4.00 | pIC50 ([9]; n = 4, 72 h): < 4.00 | pIC50 [10]: < 4.00 | pIC50 [11]: 4.57

C#Cc1cc(Nc2ncnc3cc(I)ccc23)ccc1F [Compound 40]
pIC50 [4]: 4.30 | pIC50 [5, 12]: 5.44 | pIC50 [6]: < 4.00 | CC: Cell Cycle score [1]: 0.28 | CM: Cell morphology score [1]: 0.049 | CMI: Cell membrane integrity score [1]: 0.26 | GSH: Glutathione score [1]: 0.033 | MMP: Mitochondrial membrane depolarization score [1]: 0.59 | NMI1: Nuclear membrane integrity 1 score [1]: 0.46 | NMI2: Nuclear membrane integrity 2 score [1]: 0.33 | ROS: Reactive superoxide species score [1]: 0.34 | CHI: Cell Health Index [1]: 0.38 | pIC50 [7]: < 4.00 | pIC50 [8]: < 4.00 | pIC50 ([9]; n = 4, 72 h): < 4.00 | U-CH2 IC50 ([9]; n = 4, 72 h): no activity | pIC50 [10]: < 4.00 | pIC50 [11]: < 4.00 | U-CH1 IC50 [11]: no activity

C#Cc1cc(Nc2ncnc3cc(OC)c(OC)cc23)ccc1F [Compound 44]
pIC50 [4]: 6.52 | pIC50 [5, 12]: 7.52 | pIC50 ([5]; in-cell EGFR inhibition): > 7.00 | pIC50 [6]: 5.14 | CC: Cell Cycle score [1]: 0.027 | CM: Cell morphology score [1]: 0.83 | CMI: Cell membrane integrity score [1]: 0.40 | GSH: Glutathione score [1]: 0.054 | MMP: Mitochondrial membrane depolarization score [1]: 0.15 | NMI1: Nuclear membrane integrity 1 score [1]: 0.44 | NMI2: Nuclear membrane integrity 2 score [1]: 0.18 | ROS: Reactive superoxide species score [1]: 0.66 | CHI: Cell Health Index [1]: 0.34 | pIC50 [7]: 6.17 | pIC50 [8]: 6.48 | pIC50 ([9]; n = 4, 72 h): 4.66 | pIC50 [10]: 6.06 | pIC50 [11]: < 4.00

Source: PMC9329436, “Optimization of the 4-anilinoquin(az)oline scaffold as epidermal growth factor receptor (EGFR) inhibitors for chordoma utilizing a toxicology profiling assay platform” (Scientific Reports, 2022)
